The values that follow come from patent publication US20230203059A1, “MACROCYCLIC JAK INHIBITOR AND USES THEREOF” (Biopolar Hongye (Guangdong) Pharmaceutical Co. Ltd., priority 2020, published 2023).

Type in all cases: biochemical
For one experiment, the target named is T1, JAK3 (Homo sapiens, UniProt P52333).
T1 sequence (P52333 1-1124): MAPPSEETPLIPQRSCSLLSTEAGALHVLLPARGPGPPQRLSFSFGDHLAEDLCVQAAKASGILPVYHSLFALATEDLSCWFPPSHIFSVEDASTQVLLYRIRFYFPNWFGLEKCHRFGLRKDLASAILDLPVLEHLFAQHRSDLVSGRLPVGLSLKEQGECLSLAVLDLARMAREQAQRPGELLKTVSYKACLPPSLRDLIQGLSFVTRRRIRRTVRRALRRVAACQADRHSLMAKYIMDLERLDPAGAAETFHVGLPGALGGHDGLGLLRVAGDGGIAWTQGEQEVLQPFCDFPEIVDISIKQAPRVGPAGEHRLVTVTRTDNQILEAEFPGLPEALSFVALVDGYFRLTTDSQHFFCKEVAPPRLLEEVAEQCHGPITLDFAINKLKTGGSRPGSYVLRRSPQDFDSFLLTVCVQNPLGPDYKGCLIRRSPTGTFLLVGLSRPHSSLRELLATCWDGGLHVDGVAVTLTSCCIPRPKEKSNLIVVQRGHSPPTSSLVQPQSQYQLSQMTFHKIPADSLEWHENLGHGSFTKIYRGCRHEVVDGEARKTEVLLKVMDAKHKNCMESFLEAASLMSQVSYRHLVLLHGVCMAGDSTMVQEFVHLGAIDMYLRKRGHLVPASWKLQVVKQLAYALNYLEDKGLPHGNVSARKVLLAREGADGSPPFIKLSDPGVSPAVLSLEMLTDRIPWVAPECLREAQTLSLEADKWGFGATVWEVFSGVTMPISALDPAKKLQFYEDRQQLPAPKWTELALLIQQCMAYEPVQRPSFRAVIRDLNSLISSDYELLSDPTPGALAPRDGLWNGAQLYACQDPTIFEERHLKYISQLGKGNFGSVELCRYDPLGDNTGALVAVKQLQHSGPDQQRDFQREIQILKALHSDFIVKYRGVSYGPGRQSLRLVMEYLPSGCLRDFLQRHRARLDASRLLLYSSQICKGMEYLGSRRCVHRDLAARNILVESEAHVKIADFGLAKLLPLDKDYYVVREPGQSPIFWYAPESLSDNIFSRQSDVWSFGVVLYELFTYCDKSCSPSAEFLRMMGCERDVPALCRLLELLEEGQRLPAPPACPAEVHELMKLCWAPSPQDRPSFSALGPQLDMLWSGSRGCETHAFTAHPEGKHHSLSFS
As to the kind of experiment: JAK kinase activity, homogeneous time-resolved fluorescence (JAK3 reaction system). The following applies: ATP 2 μM, JAK3 protein 0.04 ng/μL; read-out: JAK 3 activity.

Another experiment deals with TYK2 (Homo sapiens, UniProt P29597). Put plainly: JAK kinase activity, homogeneous time-resolved fluorescence (TYK2 reaction system). The conditions noted are these: ATP 2 μM, TYK2 protein 0.2 ng/μL; read-out: TYK 2 activity. The procedure, abridged: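 Activity read as the 665 nm/615 nm ratio after adding EDTA-containing detection mix with anti-phospho-substrate antibody and XL-615. Beforehand, 0.2 ng/μL TYK2, 2 μM ATP, substrate and compound reacted 1 h in pH 7.0 Hepes buffer with MgCl2 and DTT. IC50 fitted with Hill-slope equation.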

A further experiment addresses JAK1 (Homo sapiens, UniProt P23458). As to the kind of experiment: JAK kinase activity, homogeneous time-resolved fluorescence (JAK1 reaction system). The conditions noted are these: ATP 2 μM, JAK1 protein 0.2 ng/μL; read-out: JAK 1 activity. The procedure, abridged: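 Kinase activity read as the 665 nm/615 nm time-resolved fluorescence ratio (320 nm excitation) after EDTA-containing antibody and XL-615 addition. Reaction ran 1 h at pH 7.0 (Hepes, MgCl2, DTT) with 0.2 ng/μL JAK1 and ATP at 2 μM. IC50 derived by Hill-slope fit.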

The next experiment addresses JAK2 (Homo sapiens, UniProt O60674). As to the kind of experiment: JAK kinase activity, homogeneous time-resolved fluorescence (JAK2 reaction system). The following applies: ATP 2 μM, JAK2 protein 0.01 ng/μL. The procedure, abridged: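 IC50 derived by Hill-equation fit of the 665/615 nm time-resolved fluorescence ratio after EDTA-containing detection mix with anti-phosphosubstrate antibody. Preceding 1 h reaction contained 2 μM ATP, 0.01 ng/μL JAK2, substrate, 50 mM Hepes pH 7.0, 5 mM MgCl2, 1 mM DTT.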

Sequence of JAK1 (P23458 whole entry): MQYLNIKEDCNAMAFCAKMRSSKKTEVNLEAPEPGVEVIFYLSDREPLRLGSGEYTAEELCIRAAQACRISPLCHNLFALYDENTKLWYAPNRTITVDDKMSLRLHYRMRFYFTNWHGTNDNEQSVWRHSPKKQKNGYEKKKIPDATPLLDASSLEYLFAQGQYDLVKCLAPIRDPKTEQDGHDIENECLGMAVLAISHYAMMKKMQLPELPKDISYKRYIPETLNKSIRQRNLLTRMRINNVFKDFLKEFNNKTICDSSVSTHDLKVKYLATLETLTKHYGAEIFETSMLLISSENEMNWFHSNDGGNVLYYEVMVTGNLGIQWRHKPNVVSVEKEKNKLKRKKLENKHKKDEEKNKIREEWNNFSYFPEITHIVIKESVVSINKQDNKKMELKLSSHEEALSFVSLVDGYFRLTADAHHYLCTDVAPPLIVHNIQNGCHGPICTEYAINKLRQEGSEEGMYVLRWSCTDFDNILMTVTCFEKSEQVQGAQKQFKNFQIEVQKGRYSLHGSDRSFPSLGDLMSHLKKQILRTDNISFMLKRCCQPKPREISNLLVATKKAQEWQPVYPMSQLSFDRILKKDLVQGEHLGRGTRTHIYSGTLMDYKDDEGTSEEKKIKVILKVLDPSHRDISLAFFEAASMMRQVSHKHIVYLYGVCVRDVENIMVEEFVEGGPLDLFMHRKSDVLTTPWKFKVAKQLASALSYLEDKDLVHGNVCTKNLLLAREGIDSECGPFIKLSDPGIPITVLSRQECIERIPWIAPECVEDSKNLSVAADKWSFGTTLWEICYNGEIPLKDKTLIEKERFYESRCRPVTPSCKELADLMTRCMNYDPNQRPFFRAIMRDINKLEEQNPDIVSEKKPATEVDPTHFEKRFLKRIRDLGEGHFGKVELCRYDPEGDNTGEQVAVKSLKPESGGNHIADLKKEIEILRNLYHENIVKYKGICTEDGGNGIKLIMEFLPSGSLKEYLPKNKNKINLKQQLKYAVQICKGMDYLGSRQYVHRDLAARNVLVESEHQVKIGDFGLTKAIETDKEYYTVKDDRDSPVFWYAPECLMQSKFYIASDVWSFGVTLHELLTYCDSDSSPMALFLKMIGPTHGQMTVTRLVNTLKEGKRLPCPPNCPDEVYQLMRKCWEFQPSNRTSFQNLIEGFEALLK
Sequence of JAK2 (O60674 whole entry): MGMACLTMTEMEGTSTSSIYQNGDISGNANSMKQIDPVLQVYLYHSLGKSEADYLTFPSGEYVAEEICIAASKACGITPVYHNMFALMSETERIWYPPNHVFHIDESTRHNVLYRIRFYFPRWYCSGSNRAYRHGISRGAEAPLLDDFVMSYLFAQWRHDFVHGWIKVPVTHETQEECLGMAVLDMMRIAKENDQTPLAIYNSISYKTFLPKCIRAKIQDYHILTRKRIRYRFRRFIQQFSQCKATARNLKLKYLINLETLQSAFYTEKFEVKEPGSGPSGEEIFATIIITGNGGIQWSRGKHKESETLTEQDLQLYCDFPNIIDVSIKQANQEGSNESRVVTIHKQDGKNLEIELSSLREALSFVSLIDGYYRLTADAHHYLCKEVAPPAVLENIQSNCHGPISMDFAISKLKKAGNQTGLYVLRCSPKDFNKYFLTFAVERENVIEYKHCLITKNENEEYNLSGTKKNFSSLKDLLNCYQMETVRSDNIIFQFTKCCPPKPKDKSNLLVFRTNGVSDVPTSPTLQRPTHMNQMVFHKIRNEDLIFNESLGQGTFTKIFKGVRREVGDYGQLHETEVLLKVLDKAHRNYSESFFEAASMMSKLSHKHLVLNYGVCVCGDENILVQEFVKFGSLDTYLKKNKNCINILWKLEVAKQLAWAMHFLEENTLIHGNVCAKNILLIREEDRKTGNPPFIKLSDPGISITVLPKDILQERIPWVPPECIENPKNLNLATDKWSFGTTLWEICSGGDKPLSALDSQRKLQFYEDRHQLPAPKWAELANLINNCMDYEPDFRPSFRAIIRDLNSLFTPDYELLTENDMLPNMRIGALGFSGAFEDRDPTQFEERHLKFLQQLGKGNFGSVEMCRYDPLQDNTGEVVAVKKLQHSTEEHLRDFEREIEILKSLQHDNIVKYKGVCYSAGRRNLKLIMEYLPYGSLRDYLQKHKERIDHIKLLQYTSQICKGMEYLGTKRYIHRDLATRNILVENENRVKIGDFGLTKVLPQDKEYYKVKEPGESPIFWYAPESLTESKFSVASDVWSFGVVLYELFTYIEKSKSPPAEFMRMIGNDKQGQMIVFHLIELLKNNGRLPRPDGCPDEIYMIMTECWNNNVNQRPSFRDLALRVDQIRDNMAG
Sequence of TYK2 (P29597 whole entry): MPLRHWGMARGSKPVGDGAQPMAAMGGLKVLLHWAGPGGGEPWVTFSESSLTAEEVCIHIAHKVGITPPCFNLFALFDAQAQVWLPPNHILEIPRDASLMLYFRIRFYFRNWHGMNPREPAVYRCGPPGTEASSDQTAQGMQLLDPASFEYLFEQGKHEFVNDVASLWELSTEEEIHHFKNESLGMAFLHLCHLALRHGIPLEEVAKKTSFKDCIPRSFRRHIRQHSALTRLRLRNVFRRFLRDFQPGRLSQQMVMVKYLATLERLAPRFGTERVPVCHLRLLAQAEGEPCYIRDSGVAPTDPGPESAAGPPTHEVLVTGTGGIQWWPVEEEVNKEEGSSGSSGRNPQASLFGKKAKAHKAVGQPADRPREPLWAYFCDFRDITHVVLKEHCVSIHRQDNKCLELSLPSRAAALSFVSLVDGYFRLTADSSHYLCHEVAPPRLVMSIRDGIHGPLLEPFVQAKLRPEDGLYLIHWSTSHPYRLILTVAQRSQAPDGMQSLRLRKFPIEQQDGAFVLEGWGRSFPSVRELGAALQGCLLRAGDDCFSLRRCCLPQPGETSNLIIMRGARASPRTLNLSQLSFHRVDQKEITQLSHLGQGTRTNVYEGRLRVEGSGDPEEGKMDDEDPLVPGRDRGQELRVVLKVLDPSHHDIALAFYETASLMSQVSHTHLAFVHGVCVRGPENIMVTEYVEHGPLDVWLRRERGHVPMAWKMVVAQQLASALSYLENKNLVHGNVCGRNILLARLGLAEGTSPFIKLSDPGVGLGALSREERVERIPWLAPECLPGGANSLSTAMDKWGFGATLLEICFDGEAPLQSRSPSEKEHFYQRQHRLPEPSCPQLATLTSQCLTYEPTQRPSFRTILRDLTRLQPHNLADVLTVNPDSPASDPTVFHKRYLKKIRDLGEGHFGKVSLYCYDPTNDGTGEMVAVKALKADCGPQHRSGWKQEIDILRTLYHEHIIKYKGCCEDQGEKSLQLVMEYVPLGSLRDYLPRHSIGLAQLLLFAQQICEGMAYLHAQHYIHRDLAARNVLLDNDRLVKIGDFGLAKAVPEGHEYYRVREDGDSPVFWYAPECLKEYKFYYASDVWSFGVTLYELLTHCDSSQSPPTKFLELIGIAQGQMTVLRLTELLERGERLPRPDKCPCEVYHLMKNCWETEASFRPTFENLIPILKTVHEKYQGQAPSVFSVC

Regarding `Nc1cc2ccc1-c1ccnc(n1)Nc1ccc(OC3CCCCC3)c(c1)COCCCCNC2=O` [Example 47, 1^2-amino-4^4-cyclohexyloxy-6-oxa-3,11-diaza-2(4,2)-pyrimidina-1(1,4),4(1,3)-dibenzenacyclododecaphan-12-one], the IC50 at JAK3 was 0.011 to 0.1 µM; on TYK2, 1 to 10 µM; at JAK1, 1 to 10 µM; against JAK2, 1 to 10 µM.
For the compound `O=C1NCCCCOCc2cc(ccc2N2CCCCC2)Nc2nccc(n2)-c2ccc1cc2[N+](=O)[O-]` [Example 48, 1^2-nitro-4^4-(piperidin-1-)-6-oxa-3,11-diaza-2(4,2)-pyrimidina-1(1,4),4(1,3)-dibenzenacyclododecaphan-12-one], the IC50 is 0.101 to 1 µM at JAK3, 1 to 10 µM at TYK2, 1 to 10 µM on JAK1 and 1 to 10 µM against JAK2.
Take `O=C1NCCCCCOCc2cc(ccc2N2CCOCC2)Nc2nccc(n2)-c2ccc1cc2[N+](=O)[O-]` [Example 49, 1^2-nitro-4^4-morpholin-6-oxa-3,12-di-aza-2(4,2)-pyrimidina-1(1,4),4(1,3)-dibenzenacyclotridecaphan-13-one]: the IC50 lay within 1 to 10 µM at JAK3, 1 to 10 µM at TYK2, 1 to 10 µM at JAK1 and 0.101 to 1 µM against JAK2.
As to `Nc1cc2ccc1-c1ccnc(n1)Nc1ccc(N3CCOCC3)c(c1)COCCCCCNC2=O` [Example 50, 1^2-amino-4^4-morpholin-6-oxa-3,12-diaza-2(4,2)-pyrimidina-1(1,4),4(1,3)-dibenzenacyclotridecaphan-13-one], the IC50 on JAK3 was less than 0.01 µM; at TYK2, 0.011 to 0.1 µM; at JAK1, 0.101 to 1 µM; at JAK2, 0.011 to 0.1 µM.
For `O=C1NCCCCOCc2cc(cc(N3CCOCC3)c2)Nc2nccc(n2)-c2ccc1cc2[N+](=O)[O-]` [Example 51, 1^2-nitro-4^5-morpholin-6-oxa-3,11-di-aza-2(4,2)-pyrimidina-1(1,4),4(1,3)-dibenzenacyclododecaphan-12-one], the IC50 is 0.101 to 1 µM on JAK3, more than 10 µM on TYK2, 1 to 10 µM on JAK1 and 1 to 10 µM at JAK2.
`Nc1cc2ccc1-c1ccnc(n1)Nc1cc(cc(N3CCOCC3)c1)COCCCCNC2=O` [Example 52, 1^2-amino-4^5-morpholin-6-oxa-3,11-diaza-2(4,2)-pyrimidina-1(1,4),4(1,3)-dibenzenacyclododecaphan-12-one]: the IC50 at JAK3 was less than 0.01 µM; at TYK2 it was 0.101 to 1 µM; on JAK1, 0.101 to 1 µM; at JAK2 it was 0.011 to 0.1 µM.
Take `O=C1NCCCCOCc2cccc(c2)Nc2nccc(n2)-c2ccc1cc2[N+](=O)[O-]` [Example 53, 1^2-nitro-6-oxa-3,11-diaza-2(4,2)-py-rimidina-1(1,4),4(1,3)-dibenzenacyclo-dodecaphan-12-one]: the IC50 was 1 to 10 µM at JAK3, more than 10 µM on TYK2, 1 to 10 µM on JAK1 and more than 10 µM against JAK2.
As to `Nc1cc2ccc1-c1ccnc(n1)Nc1cccc(c1)COCCCCNC2=O` [Example 54, 1^2-amino-6-oxa-3,11-diaza-2(4,2)-py-rimidina-1(1,4),4(1,3)-dibenzena-cyclododecaphan-12-one], the IC50 on JAK3 fell in the range of 0.011 to 0.1 µM; at TYK2, 1 to 10 µM; on JAK1 it was 0.101 to 1 µM; against JAK2 it was 0.101 to 1 µM.
Regarding `Nc1cc2ccc1-c1ccnc(n1)Nc1ccc(N3CCCCC3)c(c1)COCCCCNC2=O` [Example 55, 1^2-amino-4^4-(piperidin-1-)-6-oxa-3,11-diaza-2(4,2)-pyrimidina-1(1,4),4(1,3)-dibenzenacyclododecaphan-12-one], the IC50 is less than 0.01 µM at JAK3, 0.101 to 1 µM at TYK2, 0.101 to 1 µM at JAK1 and 0.011 to 0.1 µM against JAK2.
Take `O=C1NCCCCCCOCc2cc(ccc2N2CCOCC2)Nc2nccc(n2)-c2ccc1cc2[N+](=O)[O-]` [Example 56, 1^2-nitro-4^4-morpholin-6-oxa-3,13-di-aza-2(4,2)-pyrimidina-1(1,4),4(1,3)-dibenzenacyclotetradecaphan-14-one]: the IC50 was 1 to 10 µM at JAK3, more than 10 µM at TYK2, more than 10 µM on JAK1 and 1 to 10 µM against JAK2.
Take `Nc1cc2ccc1-c1ccnc(n1)Nc1ccc(N3CCOCC3)c(c1)COCCCCCCNC2=O` [Example 57, 1^2-amino-4^4-morpholin-6-oxa-3,13-diaza-2(4,2)-pyrimidina-1(1,4),4(1,3)-dibenzenacyclotetradecaphan-14-one]: the IC50 on JAK3 was in the range of 0.011 to 0.1 µM; at TYK2, 0.101 to 1 µM; on JAK1 it was 1 to 10 µM; on JAK2, 0.101 to 1 µM.
For `COc1cnc2nc1-c1ccc(c(F)c1)C(=O)NCCCCOCc1cc(ccc1N1CCOCC1)N2` [Example 58, 1^3-fluoro-2^5-methoxy-4^4-morpholin-6-oxa-3,11-diaza-2(4,2)-pyrimidina-1(1,4),4(1,3)-dibenzenacyclodode-caphan-12-one], the IC50 is 0.011 to 0.1 µM on JAK3, 0.101 to 1 µM on TYK2, 0.011 to 0.1 µM at JAK1 and 0.011 to 0.1 µM on JAK2.
Regarding `CN1CCN(c2ccc3cc2COCCCCNC(=O)c2ccc(c([N+](=O)[O-])c2)-c2ccnc(n2)N3)CC1` [Example 59, 1^2-nitro-4^4-(4-methylpiperazin-1-)-6-oxa-3,11-diaza-2(4,2)-pyrimidina-1(1,4),4(1,3)-dibenzenacyclododeca-phan-12-one], the IC50 on JAK3 was 0.101 to 1 µM; on TYK2 it was more than 10 µM; at JAK1, 1 to 10 µM; on JAK2 it was 1 to 10 µM.
On to `O=C1NCCCCOCc2cc(ccc2Cl)Nc2nccc(n2)-c2ccc1cc2[N+](=O)[O-]` [Example 60, 1^2-nitro-4^4-chloro-6-oxa-3,11-diaza-2(4,2)-pyrimidina-1(1,4),4(1,3)-di-benzenacyclododecaphan-12-one], for which the IC50 was in the range of 0.101 to 1 µM at JAK3, 1 to 10 µM at TYK2, 0.101 to 1 µM on JAK1 and 0.101 to 1 µM on JAK2.
With `O=C1NCCCCOCc2cc(ccc2OC2CCOCC2)Nc2nccc(n2)-c2ccc1cc2[N+](=O)[O-]` [Example 61, 1^2-nitro-4^4-(2H-tetrahydropyran-4-oxo)-6-oxa-3,11-diaza-2(4,2)-pyrimi-dina-1(1,4),4(1,3)-dibenzenacyclo-dodecaphan-12-one], the IC50 on JAK3 is 0.101 to 1 µM; on TYK2, more than 10 µM; at JAK1 it was 1 to 10 µM; against JAK2, 1 to 10 µM.
On to `Nc1cc2ccc1-c1ccnc(n1)Nc1ccc(OC3CCOCC3)c(c1)COCCCCNC2=O` [Example 63, 1^2-amino-4^4-(4-tetrahydropyranoxy)-6-oxa-3,11-diaza-2(4,2)-pyrimidina-1(1,4),4(1,3)-dibenzenacyclo-dodecaphan-12-one], for which the IC50 was less than 0.01 µM on JAK3, 1 to 10 µM on TYK2, 0.101 to 1 µM on JAK1 and 0.011 to 0.1 µM on JAK2.
For `CC(C)Oc1ccc2cc1COCCCCNC(=O)c1ccc(c([N+](=O)[O-])c1)-c1ccnc(n1)N2` [Example 64, 4^4-isopropoxy-1^2-nitro-6-oxa-3,11-diaza-2(4,2)-pyrimidina-1(1,4),4(1,3)-dibenzenacyclododecaphan-12-one] the same measures were 0.101 to 1 µM, more than 10 µM, 1 to 10 µM and 0.101 to 1 µM.
